Measurements published in ChEMBL document CHEMBL4145464, “Prenylated flavonoids as potent phosphodiesterase-4 inhibitors from Morus alba: Isolation, modification, and structure-activity relationship study” (Eur J Med Chem, 2018).

Tests used:
[1] = target: 3',5'-cyclic-AMP phosphodiesterase 4D (Homo sapiens, UniProt Q08499); assay: Inhibition of human PDE4D2 catalytic domain (86 to 413 residues) expressed in Escherichia coli strain BL21 using [3H]cAMP as substrate after 15 mins by liquid scintillation counter analysis
[2] = target: Dual specificity calcium/calmodulin-dependent 3',5'-cyclic nucleotide phosphodiesterase 1B (Homo sapiens, UniProt Q01064); assay: Inhibition of human PDE1B2 catalytic domain (10 to 487 residues) expressed in Escherichia coli strain BL21 using [3H]cAMP as substrate after 15 mins by liquid scintillation counter analysis
[3] = target: cGMP-dependent 3',5'-cyclic phosphodiesterase (Homo sapiens, UniProt O00408); assay: Inhibition of human PDE2A3 catalytic domain (222 to 904 residues) expressed in Escherichia coli strain BL21 using [3H]cAMP as substrate after 15 mins by liquid scintillation counter analysis
[4] = target: cGMP-specific 3',5'-cyclic phosphodiesterase (Homo sapiens, UniProt O76074); assay: Inhibition of human PDE5A1 catalytic domain (535 to 860 residues) expressed in Escherichia coli strain BL21 using [3H]cAMP as substrate after 15 mins by liquid scintillation counter analysis
[5] = target: High affinity cGMP-specific 3',5'-cyclic phosphodiesterase 9A (Homo sapiens, UniProt O76083); assay: Inhibition of human PDE9A2 catalytic domain (181 to 506 residues) expressed in Escherichia coli strain BL21 using [3H]cAMP as substrate after 15 mins by liquid scintillation counter analysis
[6] = target: cAMP and cAMP-inhibited cGMP 3',5'-cyclic phosphodiesterase 10A (Homo sapiens, UniProt Q9Y233); assay: Inhibition of human PDE10A2 catalytic domain (448 to 789 residues) expressed in Escherichia coli strain BL21 using [3H]cAMP as substrate after 15 mins by liquid scintillation counter analysis
[7] = organism: Homo sapiens; assay: Selectivity ratio of IC50 for human PDE1B2 catalytic domain (10 to 487 residues) expressed in Escherichia coli strain BL21 to IC50 for human PDE4D2 catalytic domain (86 to 413 residues) expressed in Escherichia coli strain BL21
[8] = organism: Homo sapiens; assay: Selectivity ratio of IC50 for human PDE2A3 catalytic domain (222 to 904 residues) expressed in Escherichia coli strain BL21 to IC50 for human PDE4D2 catalytic domain (86 to 413 residues) expressed in Escherichia coli strain BL21
[9] = organism: Homo sapiens; assay: Selectivity ratio of IC50 for human PDE5A1 catalytic domain (535 to 860 residues) expressed in Escherichia coli strain BL21 to IC50 for human PDE4D2 catalytic domain (86 to 413 residues) expressed in Escherichia coli strain BL21
[10] = organism: Homo sapiens; assay: Selectivity ratio of IC50 for human PDE9A2 catalytic domain (181 to 506 residues) expressed in Escherichia coli strain BL21 to IC50 for human PDE4D2 catalytic domain (86 to 413 residues) expressed in Escherichia coli strain BL21
[11] = organism: Homo sapiens; assay: Selectivity ratio of IC50 for human PDE10A2 catalytic domain (448 to 789 residues) expressed in Escherichia coli strain BL21 to IC50 for human PDE4D2 catalytic domain (86 to 413 residues) expressed in Escherichia coli strain BL21

Sequence of 3',5'-cyclic-AMP phosphodiesterase 4D (Q08499 whole entry, the tested form may be a part): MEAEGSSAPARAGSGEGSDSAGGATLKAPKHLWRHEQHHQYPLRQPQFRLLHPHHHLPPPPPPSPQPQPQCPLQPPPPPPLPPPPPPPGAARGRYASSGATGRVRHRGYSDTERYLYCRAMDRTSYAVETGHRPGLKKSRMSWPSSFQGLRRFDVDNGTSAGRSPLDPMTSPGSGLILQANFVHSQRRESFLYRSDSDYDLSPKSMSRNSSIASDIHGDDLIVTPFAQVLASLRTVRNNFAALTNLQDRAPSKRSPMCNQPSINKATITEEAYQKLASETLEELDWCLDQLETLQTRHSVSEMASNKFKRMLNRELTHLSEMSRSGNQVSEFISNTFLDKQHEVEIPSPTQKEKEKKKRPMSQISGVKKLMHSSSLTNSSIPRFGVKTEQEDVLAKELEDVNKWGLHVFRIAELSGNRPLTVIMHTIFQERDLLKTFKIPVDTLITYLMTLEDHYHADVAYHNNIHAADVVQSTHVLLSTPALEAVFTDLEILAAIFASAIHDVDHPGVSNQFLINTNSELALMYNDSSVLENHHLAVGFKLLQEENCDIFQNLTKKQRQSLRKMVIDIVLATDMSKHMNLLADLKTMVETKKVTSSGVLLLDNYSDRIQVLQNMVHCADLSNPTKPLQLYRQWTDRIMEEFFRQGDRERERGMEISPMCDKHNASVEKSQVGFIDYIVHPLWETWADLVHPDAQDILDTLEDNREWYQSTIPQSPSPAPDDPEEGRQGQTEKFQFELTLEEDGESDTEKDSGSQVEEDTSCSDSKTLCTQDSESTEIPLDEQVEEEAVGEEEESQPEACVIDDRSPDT
Sequence of cGMP-dependent 3',5'-cyclic phosphodiesterase (O00408 whole entry, the tested form may be a part): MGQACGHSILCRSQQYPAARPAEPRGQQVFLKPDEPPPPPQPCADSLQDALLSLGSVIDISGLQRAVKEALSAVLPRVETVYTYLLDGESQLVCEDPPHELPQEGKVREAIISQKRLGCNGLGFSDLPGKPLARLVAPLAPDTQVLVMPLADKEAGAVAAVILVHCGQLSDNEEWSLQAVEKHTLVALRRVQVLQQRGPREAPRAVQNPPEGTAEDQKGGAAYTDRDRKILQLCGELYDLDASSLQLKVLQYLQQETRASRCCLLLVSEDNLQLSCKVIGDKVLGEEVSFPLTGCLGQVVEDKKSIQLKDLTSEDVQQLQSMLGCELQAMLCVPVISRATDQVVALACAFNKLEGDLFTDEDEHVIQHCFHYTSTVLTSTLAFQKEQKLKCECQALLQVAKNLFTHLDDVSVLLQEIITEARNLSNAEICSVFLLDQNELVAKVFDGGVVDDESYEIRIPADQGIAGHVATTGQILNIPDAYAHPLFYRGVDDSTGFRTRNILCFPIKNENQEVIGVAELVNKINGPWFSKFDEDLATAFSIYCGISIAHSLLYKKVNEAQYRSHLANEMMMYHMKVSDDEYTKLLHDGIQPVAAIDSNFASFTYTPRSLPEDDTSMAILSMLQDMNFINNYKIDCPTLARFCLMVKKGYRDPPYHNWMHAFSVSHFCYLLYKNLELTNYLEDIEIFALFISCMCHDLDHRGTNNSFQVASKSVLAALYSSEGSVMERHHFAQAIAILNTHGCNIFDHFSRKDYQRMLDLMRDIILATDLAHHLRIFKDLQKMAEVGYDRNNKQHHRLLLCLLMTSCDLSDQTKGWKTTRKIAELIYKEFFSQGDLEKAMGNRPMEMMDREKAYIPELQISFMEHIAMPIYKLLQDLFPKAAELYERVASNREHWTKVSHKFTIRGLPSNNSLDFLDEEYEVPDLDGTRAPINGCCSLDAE
Sequence of Dual specificity calcium/calmodulin-dependent 3',5'-cyclic nucleotide phosphodiesterase 1B (Q01064 whole entry, the tested form may be a part): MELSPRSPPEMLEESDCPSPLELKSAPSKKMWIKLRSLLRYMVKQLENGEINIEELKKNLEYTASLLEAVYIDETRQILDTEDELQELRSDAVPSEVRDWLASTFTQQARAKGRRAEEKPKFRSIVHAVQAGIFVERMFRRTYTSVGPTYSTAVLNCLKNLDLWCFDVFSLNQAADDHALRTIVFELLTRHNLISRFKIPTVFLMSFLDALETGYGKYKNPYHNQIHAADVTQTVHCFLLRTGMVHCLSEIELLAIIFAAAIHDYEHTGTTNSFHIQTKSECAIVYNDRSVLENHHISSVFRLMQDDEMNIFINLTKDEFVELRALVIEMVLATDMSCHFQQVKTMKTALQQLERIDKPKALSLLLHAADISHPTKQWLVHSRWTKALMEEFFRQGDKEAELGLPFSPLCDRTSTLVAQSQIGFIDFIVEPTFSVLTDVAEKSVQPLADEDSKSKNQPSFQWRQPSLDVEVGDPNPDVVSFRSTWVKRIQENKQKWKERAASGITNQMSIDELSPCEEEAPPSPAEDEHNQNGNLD
Sequence of cAMP and cAMP-inhibited cGMP 3',5'-cyclic phosphodiesterase 10A (Q9Y233 whole entry, the tested form may be a part): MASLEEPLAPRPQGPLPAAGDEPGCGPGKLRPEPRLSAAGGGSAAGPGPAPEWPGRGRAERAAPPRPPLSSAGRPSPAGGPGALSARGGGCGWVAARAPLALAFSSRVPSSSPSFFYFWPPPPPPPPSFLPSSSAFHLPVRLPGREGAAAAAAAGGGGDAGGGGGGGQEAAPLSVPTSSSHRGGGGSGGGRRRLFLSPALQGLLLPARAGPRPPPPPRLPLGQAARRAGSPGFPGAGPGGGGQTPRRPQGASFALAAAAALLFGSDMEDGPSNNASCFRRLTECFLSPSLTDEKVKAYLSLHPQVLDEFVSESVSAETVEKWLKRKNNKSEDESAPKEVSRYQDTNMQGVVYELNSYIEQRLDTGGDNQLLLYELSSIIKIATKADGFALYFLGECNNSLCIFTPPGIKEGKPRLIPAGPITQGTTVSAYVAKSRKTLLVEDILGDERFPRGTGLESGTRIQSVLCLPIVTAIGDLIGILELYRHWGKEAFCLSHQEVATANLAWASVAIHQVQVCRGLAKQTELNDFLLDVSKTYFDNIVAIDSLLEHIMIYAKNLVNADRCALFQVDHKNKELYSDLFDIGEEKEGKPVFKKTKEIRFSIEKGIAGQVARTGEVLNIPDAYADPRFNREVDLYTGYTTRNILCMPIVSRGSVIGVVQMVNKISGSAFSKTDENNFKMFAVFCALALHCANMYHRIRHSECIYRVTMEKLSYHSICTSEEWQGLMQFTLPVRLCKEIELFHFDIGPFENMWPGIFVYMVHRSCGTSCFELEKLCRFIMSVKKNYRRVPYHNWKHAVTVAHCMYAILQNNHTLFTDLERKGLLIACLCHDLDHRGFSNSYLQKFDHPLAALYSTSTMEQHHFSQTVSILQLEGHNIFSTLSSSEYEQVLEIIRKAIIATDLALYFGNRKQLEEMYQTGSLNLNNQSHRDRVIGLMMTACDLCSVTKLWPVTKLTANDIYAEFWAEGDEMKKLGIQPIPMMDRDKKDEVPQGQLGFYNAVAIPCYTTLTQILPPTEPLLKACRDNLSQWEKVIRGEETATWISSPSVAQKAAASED
Sequence of High affinity cGMP-specific 3',5'-cyclic phosphodiesterase 9A (O76083 whole entry, the tested form may be a part): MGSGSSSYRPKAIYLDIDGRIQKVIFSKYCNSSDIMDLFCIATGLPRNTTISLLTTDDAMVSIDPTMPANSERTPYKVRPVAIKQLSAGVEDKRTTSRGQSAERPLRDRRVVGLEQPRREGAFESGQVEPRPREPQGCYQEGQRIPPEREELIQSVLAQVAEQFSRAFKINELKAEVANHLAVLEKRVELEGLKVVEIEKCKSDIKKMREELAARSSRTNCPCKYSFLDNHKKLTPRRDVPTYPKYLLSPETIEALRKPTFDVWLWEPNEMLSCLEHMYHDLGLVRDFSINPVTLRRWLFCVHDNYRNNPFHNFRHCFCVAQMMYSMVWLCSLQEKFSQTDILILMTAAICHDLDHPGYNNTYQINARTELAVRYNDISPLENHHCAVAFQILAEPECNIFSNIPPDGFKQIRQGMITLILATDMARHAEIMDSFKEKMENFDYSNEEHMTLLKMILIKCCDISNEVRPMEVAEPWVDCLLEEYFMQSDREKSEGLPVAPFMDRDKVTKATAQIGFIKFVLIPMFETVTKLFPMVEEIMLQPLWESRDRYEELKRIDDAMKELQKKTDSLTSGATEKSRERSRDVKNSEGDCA

SMILES	IC50 [1] [nM]	also measured
CC1(C)C=Cc2c(ccc(-c3cc(=O)c4c(O)cc5c(c4o3)C=CC(C)(C)O5)c2O)O1	30	–
CC(C)=CCC/C(C)=C/Cc1c(O)ccc([C@@H]2CC(=O)c3c(O)cc(O)cc3O2)c1O	2330	–
CC(C)=C[C@H]1Oc2cc(O)ccc2-c2oc3c4c(cc(O)c3c(=O)c21)OC(C)(C)C=C4	5.4	inhibition [1]: Dose-dependent effect; IC50 [2]: 300 nM; IC50 [3]: 590 nM; IC50 [4]: 410 nM; IC50 [5]: 350 nM; IC50 [6]: 510 nM; Ratio IC50 [7]: 55; Ratio IC50 [8]: 109; Ratio IC50 [9]: 76; Ratio IC50 [10]: 65; Ratio IC50 [11]: 94
CC(C)=CCC/C(C)=C/Cc1cc([C@@H]2CC(=O)c3c(O)cc(O)cc3O2)c(O)cc1O	1260	–
CC(=O)Oc1ccc2c(c1)O[C@H](C=C(C)C)c1c-2oc2c3c(cc(O)c2c1=O)OC(C)(C)C=C3	4890	–
CC(C)=C[C@@H]1Oc2cc(O)ccc2-c2oc3c4c(cc(O)c3c(=O)c21)OC(C)(C)C=C4	250	inhibition [1]: Dose-dependent effect
COC1CC(C)(C)Oc2cc(O)c3c(=O)c(CC=C(C)C)c(-c4ccc(O)cc4O)oc3c21 (stereo unspecified)	20	–
CC(C)=CCC/C(C)=C/Cc1c(O)c(CC=C(C)C)cc([C@@H]2CC(=O)c3c(O)cc(O)cc3O2)c1O	2190	–
CC1(C)C=Cc2c(c3c(c4c(=O)cc(-c5ccc(O)cc5O)oc24)OC(C)(C)CC3)O1	870	–
COc1ccc2c(c1)O[C@@H](C=C(C)C)c1c-2oc2c3c(cc(O)c2c1=O)OC(C)(C)C=C3	8600	–
CC(C)=CCc1cc([C@@H]2CC(=O)c3c(O)cc(O)cc3O2)c(O)c(CC=C(C)C)c1O	9900	–
COc1ccc2c(c1)O[C@H](C=C(C)C)c1c-2oc2c3c(cc(O)c2c1=O)OC(C)(C)C=C3	5180	–
C/C(C=O)=C\Cc1c(-c2ccc(O)cc2O)oc2c3c(cc(O)c2c1=O)OC(C)(C)C=C3	9210	–
CC(C)=CCc1c(O)cc(O)c2c(=O)c3c(oc12)-c1ccc(O)cc1OC3C=C(C)C (stereo unspecified)	40	–
CC(C)C[C@@H]1Oc2cc(O)ccc2-c2oc3c4c(cc(O)c3c(=O)c21)OC(C)(C)CC4	7500	–
CC(C)=CCCC1(C)C=Cc2cc(C3CC(=O)c4c(O)cc(O)cc4O3)c(O)cc2O1 (stereo unspecified)	3590	–
CC(C)C[C@H]1Oc2cc(O)ccc2-c2oc3c4c(cc(O)c3c(=O)c21)OC(C)(C)CC4	4350	–
CC(C)=CCc1c(O)cc2oc(-c3ccc(O)cc3O)c(CC=C(C)C)c(=O)c2c1O [CUDRAFLAVONE C]	260	–
CC(C)=CCCC1(C)C=Cc2c(ccc(-c3oc4cc(O)cc(O)c4c(=O)c3CC=C(C)C)c2O)O1 (stereo unspecified)	270	–
C=CC(C)(C)c1cc(-c2cc(=O)c3c(O)cc(O)cc3o2)c(O)cc1O	1880	–
CC(C)=CCc1c(O)cc(O)c2c(=O)cc(-c3ccc(O)cc3)oc12	630	–
CC(C)=CCc1c(-c2ccc(O)cc2O)oc2c(CC=C(C)C)c(O)cc(O)c2c1=O [KUWANON C]	310	–
CC(C)=CC1Oc2cc(O)ccc2-c2oc3cc(O)cc(O)c3c(=O)c21 (stereo unspecified)	400	–
CC(C)=CCc1c(-c2ccc(O)cc2O)oc2c3c(cc(O)c2c1=O)OC(C)(C)C=C3 [MORUSIN]	900	–
